According to US11459341B1, “Organic anion lithium ionic cocrystal compounds and compositions” (UNIVERSITY OF SOUTH FLORIDA, priority 2013, dated 2022):

System: BV2 microglia cells
Assay: NO (nitrite) production by LPS-activated BV2 microglia, Griess Reagent System
Assay type: cell-based
Conditions: treated 1 hour before 100 ng/ml LPS, nitrite in media 24 hours later
Protocol: BV2 microglia cells were treated with LIC (LiCl), LSC (Lithium saccharinate), LSCBTN and LSCSAR at 12.5 and 25 mM in DMEM for 1 hour prior to activation of microglia by 100 ng/ml LPS. Nitrite (NO^2−), a stable breakdown product of NO, was measured in the media 24 hours later using a Griess Reagent System (Promega).

Structure (SMILES): [Cl-].[Li+] [LIC, LiCl]
- inhibition of NO production by LPS-activated BV2 microglia (25 mM): only partially effective

Structure (SMILES): O=C1[N-]S(=O)(=O)c2ccccc21.[Li+] [LSC, Lithium saccharinate]
- attenuation of NO production by LPS-activated BV2 microglia, comparison between lithium forms (12.5 and 25 mM (both/all concentrations tested)): outperformed LIC
